Assay results taken from patent US10376486B2, “Compositions and methods for reactivating latent viral infections” (priority 2014, dated 2019).

Tests used:
[1] = test system: primary CD4+ T cells; assay: Pro-inflammatory cytokine expression in primary CD4+ T cells (RT-qPCR); format: cell-based, human; conditions: CD4+ T cells of healthy HIV-negative donors, 6 or 12 nM PEP005, 24 or 72 hours
Experimental: CD4+ T cells were isolated from healthy donors and treated with 6 or 12 nM of PEP005 for 24 or 72 hours, and the relative expression of TNF-α (A), IFN-γ (B), IL-2 (C), and IL-6 (D) was quantified using RT-qPCR and normalized to GAPDH internal control.

[2] = test system: CD4, CCR5 and CXCR4; assay: Expression of HIV receptors/co-receptors in primary CD4+ T cells (RT-qPCR); format: cell-based, human; conditions: primary CD4+ T cells of healthy HIV-negative donors, 12 nM PEP005, 72 hours
Experimental: FIG. 12: PEP005 down-modulates the expression of CD4, CCR5 and CXCR4 and inhibits HIV infection of primary CD4+ T cells ex vivo. (A) PEP005 inhibits expression of HIV receptors/co-receptors. […] The expression of CD4, CCR5 and CXCR4 genes was evaluated using RT-qPCR after normalizing for GAPDH. (B) and (C) PEP005 inhibits HIV infection of primary CD4+ T cells ex vivo. Primary CD4+ T cells were pre-treated with 12 or 24 nM PEP005 overnight and infected with the virus. The CD4+ T cells were incubated for 5 days without PEP005. The cells were collected for RT-qPCR targeting the HIV LTR region (B), or supernatants were collected for p24 ELISA (C). *, p<0.05; **, p<0.01.
Recent studies have shown that Prostratin and analogs down-modulate HIV receptor/co-receptor expression, which could have protective effects against the viral infection. Conversely, SAHA, known to induce latent HIV expression in HIV infected individuals receiving ART, was reported to increase susceptibility of naive CD4+ T cells to HIV acquisition. […] Primary CD4+ T cells from peripheral blood samples of healthy HIV-negative donors were treated with 12 nM PEP005 and evaluated for the expression levels of CD4, CCR5, and CCXR4 using RT-qPCR. […] The virological outcome in the CD4+ T cell cultures in vitro was monitored for 5 days.

[3] = test system: latent HIV in U1 cells; assay: HIV transcription in U1 cells (RT-qPCR); format: cell-based; conditions: 6 nM PEP005, 2 μM JQ1, 24 h
Experimental: FIG. 2: PEP005 synergizes with other latency reversing agents in reactivating latent HIV. (A) J-Lat A1 cells were treated with 5 ng/ml PMA, 6 nM PEP005, 500 nM SAHA, 2 μM JQ1, 2 μM GSK343, or 10 μM Prostratin alone or in combination with 6 nM PEP005 for 24 hours and the percentage of GFP expressing cells was determined using flow cytometry. **, p<0.01; *, p<0.05 compared with control treatment; **, p<0.01; *, p<0.05 compared with PEP005 treatment alone. (B) The U1 cells were treated with 5 ng/ml PMA, 6 nM PEP005, 500 nM SAHA, 2 μM JQ1, or 2 μM GSK343, alone or in combination with 6 nM PEP005 for 24 hours and the HIV transcription was evaluated using RT-qPCR. […] Statistical significance was determined using a one tailed ratio t-test comparing predicted and observed drug combination effects. *p<0.05; **p<0.01.
J-Lat A1 cells (harboring a single copy of latent HIV LTR and one copy of green fluorescent protein gene under the HIV LTR control) or U1 cells (harboring two latent HIV genomes with defective Tat gene) were cultured in RPMI1640 medium with 10% fetal bovine serum (FBS) and 1% Pen/strep in a 37° C. incubator containing 5% CO2 [24,31]. […] HIV reactivation was quantified by GFP expression using flow cytometry and the data were analyzed using FlowJo Software for J-Lat A1 cells, or by quantitative RT-PCR (RT-qPCR) for J-Lat A1 and U1 cells. […]

## C/C=C(/C)C(=O)O[C@H]1C(C)=C[C@]23C(=O)[C@@H](C=C(CO)[C@@H](O)[C@]12O)[C@H]1[C@@H](C[C@H]3C)C1(C)C [PEP005, (1aR,2S,5R,5aS,6S,8aS,9R,10aR)-5,5a-Dihydroxy-4-(hydroxymethyl)-1,1,7,9-tetramethyl-11-oxo-1a,2,5,5a,6,9,10,10a-octahydro-1H-2,8a-methanocyclopenta[a]cyclpropa[e][10]annulen-6-yl (2Z)-2-methylbut-2-enoate]
[1]
  expression of TNF-α, IFN-γ, IL-2, and IL-6: no significant increase
[1]; not statistically significant
  expression of TNF-α: tendency towards an up-regulation
[2]
  expression of CD4, CCR5, and CXCR4: significant reduction
[3]
  increase in latent HIV reactivation / HIV transcription compared to controls: about 25 fold
